# Results published in PMC12892976, “Alkylation-based optimization of antifungal FPPS inhibitors yields a potent, broad-spectrum lipophilic zoledronate derivative” (mBio, 2025).
# Read-outs that look alike come from different tables or passages of the source.
# How the values were obtained:
# eight fungal species = assay: MIC/MFC summary across the eight fungal species of Table 1; type: cell-based
# Method: The antifungal activity of these compounds was evaluated according to CLSI guidelines ([16]).
# HEK-293T cells = assay: MTT reduction cytotoxicity assay; type: cell-based; conditions: Homo sapiens
# Aspergillus fumigatus [1] = assay: MIC/MFC broth microdilution (CLSI); conditions: ATCC204305
# Method: (§1) Antifungal susceptibility was determined by broth microdilution according to the CLSI guidelines described in M27-Ed4 ([16]). […] MFC was determined by back-plating drug-treated cultures from MIC broths onto SDA plates. The MFC was defined as the lowest concentration from which no colonies could be cultured.
# Aspergillus fumigatus [2] = assay: checkerboard drug interaction (FICI, MICc); type: cell-based; conditions: for INH FD (MIC-MICc fold decrease): fold decrease of inhibitor MIC;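 on all read-outs here: simplified diagonal checkerboard screen pairing antifungals with FPPS inhibitors against Aspergillus fumigatus, with FICI calculated under the Loewe additivity model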
# Method: (§2) Drug interactions between antifungals and FPPS inhibitors were investigated using a simplified checkerboard diagonal screening method ([45]). […] FICIs were determined according to the Loewe additivity model ([17]).
# Candida glabrata = assay: MIC/MFC broth microdilution (CLSI);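 further: broth microdilution following CLSI M27-Ed4, MFC taken as the lowest drug level yielding no growth once MIC wells were subcultured on SDA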
# Method: as §1
# Aspergillus felis = assay: checkerboard drug interaction (FICI, MICc); type: cell-based;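 further: simplified diagonal checkerboard screen pairing antifungals with FPPS inhibitors, FICI calculated under the Loewe additivity model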
# Method: as §2
# [3] = system: Trichophyton interdigitale; assay: MIC broth microdilution (CLSI); type: cell-based; conditions: Trichophyton interdigitale R-234
# Method: (§3) Antifungal susceptibility was determined by broth microdilution according to the CLSI guidelines described in M27-Ed4 ([16]).
# Aspergillus flavus = assay: MIC/MFC broth microdilution (CLSI); conditions: ATCC204304
# Method: as §1
# Candida albicans [4] = assay: MIC/MFC broth microdilution (CLSI); type: cell-based; conditions: Candida albicans SC5314
# Method: as §1
# Candida albicans [5] = assay: checkerboard drug interaction (FICI, MICc); type: cell-based; conditions: for INH FD (MIC-MICc fold decrease): fold decrease of inhibitor MIC;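 on all read-outs here: antifungal plus FPPS inhibitor combinations on Candida albicans tested by a simplified diagonal checkerboard screen, with FICI calculated under the Loewe additivity model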
# Method: as §2
# Trichophyton rubrum = assay: checkerboard drug interaction (FICI, MICc); type: cell-based;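 further: simplified diagonal checkerboard screen pairing azole antifungals with FPPS inhibitors, FICI calculated under the Loewe additivity model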
# Method: as §2
# Candida tropicalis = assay: MIC broth microdilution (CLSI); type: cell-based; conditions: Candida tropicalis M230640
# Method: as §3
# Saccharomyces cerevisiae = assay: checkerboard drug interaction (FICI, MICc); type: cell-based; set-up: INH MICc / INH MICc (ITR:INH) / INH MICc (KET:INH) / INH MICc (FLC:INH): unit not given beside the values; conditions: for INH FD (MIC-MICc fold decrease): fold decrease of inhibitor MIC;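 on all read-outs here: simplified diagonal checkerboard screen pairing antifungals with FPPS inhibitors, FICI calculated under the Loewe additivity model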
# [6] = A. fumigatus, FLC:INH combination
# [7] = A. fumigatus, ITR:INH combination
# [8] = A. fumigatus, KET:INH combination
# [9] = C. albicans, FLC:INH combination
# [10] = C. albicans, ITR:INH combination
# [11] = C. albicans, KET:INH combination
# [12] = S. cerevisiae, FLC:INH combination
# [13] = S. cerevisiae, ITR:INH combination
smiles,measurement,setting,value
"O=P(O)(O)C(O)(Cn1ccnc1)P(=O)(O)O [ZOL, zoledronate]",Geometric mean MFC,eight fungal species; across eight species,181.0 µg/mL
same,Geometric mean MIC,eight fungal species; across eight species,98.7 µg/mL
same,MFC,"eight fungal species; across eight species, read-out: Geometric mean MFC",181 µg/mL
same,MIC,"eight fungal species; geometric mean across eight species, read-out: GM fungal MIC",98.7 µg/mL
same,MIC,eight fungal species; read-out: Geometric mean MIC,98.7 µg/mL
same,IC50,"HEK-293T cells; HEK-293T, read-out: HEK IC50",> 256 µg/mL
same,IC50,"HEK-293T cells; HEK-293T cells, projected value, read-out: predicted IC50",> 256 µg/mL
same,MFC,Aspergillus fumigatus [1],> 128 µg/mL
same,MIC,Aspergillus fumigatus [1],> 128 µg/mL
same,MIC / MEC,Aspergillus fumigatus [1],>256 µg/mL
same,FICI,Aspergillus fumigatus [2]; 5FC:ZOL,2
same,FICI,Aspergillus fumigatus [2]; [6],0.75
same,FLC MICc,"Aspergillus fumigatus [2]; A. fumigatus, FLC:INH combination, MIC of FLC in combination with the inhibitor",64
same,INH MICc,"Aspergillus fumigatus [2]; A. fumigatus, FLC:INH combination, MIC of the inhibitor in combination with FLC",64
same,FLC FD (MIC-MICc fold decrease),"Aspergillus fumigatus [2]; A. fumigatus, FLC:INH combination, fold decrease of FLC MIC",2
same,INH FD (MIC-MICc fold decrease),Aspergillus fumigatus [2]; [6],4
same,FICI,Aspergillus fumigatus [2]; [7],0.51
same,ITR MICc,"Aspergillus fumigatus [2]; A. fumigatus, ITR:INH combination, MIC of ITR in combination with the inhibitor",0.063
same,INH MICc,"Aspergillus fumigatus [2]; A. fumigatus, ITR:INH combination, MIC of the inhibitor in combination with ITR",2
same,ITR FD (MIC-MICc fold decrease),"Aspergillus fumigatus [2]; A. fumigatus, ITR:INH combination, fold decrease of ITR MIC",2
same,INH FD (MIC-MICc fold decrease),Aspergillus fumigatus [2]; [7],128
same,FICI,Aspergillus fumigatus [2]; [8],0.75
same,KET MICc,"Aspergillus fumigatus [2]; A. fumigatus, KET:INH combination, MIC of KET in combination with the inhibitor",2
same,INH MICc,"Aspergillus fumigatus [2]; A. fumigatus, KET:INH combination, MIC of the inhibitor in combination with KET",64
same,KET FD (MIC-MICc fold decrease),"Aspergillus fumigatus [2]; A. fumigatus, KET:INH combination, fold decrease of KET MIC",2
same,INH FD (MIC-MICc fold decrease),Aspergillus fumigatus [2]; [8],4
same,FICI,Aspergillus fumigatus [2]; AMB:ZOL,1.03
same,FICI,Aspergillus fumigatus [2]; CAS:ZOL,0.75
same,FICI,Aspergillus fumigatus [2]; FLC:ZOL,0.75
same,FICI,Aspergillus fumigatus [2]; ITR:ZOL,0.51
same,FICI,Aspergillus fumigatus [2]; KET:ZOL,0.75
same,FICI,Aspergillus fumigatus [2]; VOR:ZOL,0.75
same,bisphosphonate MICc,Aspergillus fumigatus [2]; ZOL with 5FC,512
same,bisphosphonate MICc,Aspergillus fumigatus [2]; ZOL with AMB,16
same,bisphosphonate MICc,Aspergillus fumigatus [2]; ZOL with CAS,128
same,bisphosphonate MICc,Aspergillus fumigatus [2]; ZOL with FLC,64
same,bisphosphonate MICc,Aspergillus fumigatus [2]; ZOL with ITR,2
same,bisphosphonate MICc,Aspergillus fumigatus [2]; ZOL with KET,128
same,bisphosphonate MICc,Aspergillus fumigatus [2]; ZOL with VOR,64
same,FICI,"Aspergillus fumigatus [2]; with FLC, Aspergillus fumigatus",0.75
same,FICI,"Aspergillus fumigatus [2]; with ITR, Aspergillus fumigatus",0.51
same,FICI,"Aspergillus fumigatus [2]; with KET, Aspergillus fumigatus",0.75
same,MIC / MEC,Candida glabrata; Candida glabrata CBS138 (ATCC 2001),8 µg/mL
same,MFC,"Candida glabrata; Nakaseomyces glabratus, CBS138",32 µg/mL
same,MIC,"Candida glabrata; Nakaseomyces glabratus, CBS138",8 µg/mL
same,FICI,Aspergillus felis; 5FC:ZOL,1.5
same,FICI,Aspergillus felis; AMB:ZOL,2.5
same,FICI,Aspergillus felis; CAS:ZOL,2.5
same,FICI,Aspergillus felis; FLC:ZOL,1.03
same,FICI,Aspergillus felis; ITR:ZOL,0.52
same,FICI,Aspergillus felis; KET:ZOL,0.63
same,FICI,Aspergillus felis; VOR:ZOL,0.38
same,bisphosphonate MICc,Aspergillus felis; ZOL with 5FC,512
same,bisphosphonate MICc,Aspergillus felis; ZOL with AMB,256
same,bisphosphonate MICc,Aspergillus felis; ZOL with CAS,256
same,bisphosphonate MICc,Aspergillus felis; ZOL with FLC,16
same,bisphosphonate MICc,Aspergillus felis; ZOL with ITR,8
same,bisphosphonate MICc,Aspergillus felis; ZOL with KET,64
same,bisphosphonate MICc,Aspergillus felis; ZOL with VOR,64
same,MIC / MEC,[3],256 µg/mL
same,MFC,Aspergillus flavus,> 128 µg/mL
same,MIC,Aspergillus flavus,> 128 µg/mL
same,MIC / MEC,Aspergillus flavus,>256 µg/mL
same,MFC,Candida albicans [4],> 128 µg/mL
same,MIC,Candida albicans [4],128 µg/mL
same,MIC / MEC,Candida albicans [4],128 µg/mL
same,FICI,Candida albicans [5]; 5FC:ZOL,1.13
same,FICI,Candida albicans [5]; AMB:ZOL,1.25
same,FICI,Candida albicans [5]; [9],0.53
same,INH MICc,"Candida albicans [5]; C. albicans, FLC:INH combination, MIC of the inhibitor in combination with FLC",8
same,FLC FD (MIC-MICc fold decrease),"Candida albicans [5]; C. albicans, FLC:INH combination, fold decrease of FLC MIC",2
same,INH FD (MIC-MICc fold decrease),Candida albicans [5]; [9],32
same,FICI,Candida albicans [5]; [10],1.13
same,INH MICc,"Candida albicans [5]; C. albicans, ITR:INH combination, MIC of the inhibitor in combination with ITR",32
same,ITR FD (MIC-MICc fold decrease),"Candida albicans [5]; C. albicans, ITR:INH combination, fold decrease of ITR MIC",1
same,INH FD (MIC-MICc fold decrease),Candida albicans [5]; [10],8
same,FICI,Candida albicans [5]; [11],1.13
same,INH MICc,"Candida albicans [5]; C. albicans, KET:INH combination, MIC of the inhibitor in combination with KET",32
same,KET FD (MIC-MICc fold decrease),"Candida albicans [5]; C. albicans, KET:INH combination, fold decrease of KET MIC",1
same,INH FD (MIC-MICc fold decrease),Candida albicans [5]; [11],8
same,FICI,Candida albicans [5]; CAS:ZOL,2.17
same,FICI,Candida albicans [5]; FLC:ZOL,0.53
same,FICI,Candida albicans [5]; ITR:ZOL,1.13
same,FICI,Candida albicans [5]; KET:ZOL,1.13
same,FICI,Candida albicans [5]; VOR:ZOL,1.46
same,bisphosphonate MICc,Candida albicans [5]; ZOL with 5FC,16
same,bisphosphonate MICc,Candida albicans [5]; ZOL with AMB,32
same,bisphosphonate MICc,Candida albicans [5]; ZOL with CAS,32
same,bisphosphonate MICc,Candida albicans [5]; ZOL with FLC,8
same,bisphosphonate MICc,Candida albicans [5]; ZOL with ITR,32
same,bisphosphonate MICc,Candida albicans [5]; ZOL with KET,32
same,bisphosphonate MICc,Candida albicans [5]; ZOL with VOR,64
same,FICI,"Candida albicans [5]; with FLC, Candida albicans",0.53
same,FICI,"Candida albicans [5]; with ITR, Candida albicans",1.13
same,FICI,"Candida albicans [5]; with KET, Candida albicans",1.13
same,FICI,Trichophyton rubrum; 5FC:ZOL,2
same,FICI,Trichophyton rubrum; AMB:ZOL,≥4
same,FICI,Trichophyton rubrum; CAS:ZOL,0.5
same,FICI,Trichophyton rubrum; FLC:ZOL,0.5
same,FICI,Trichophyton rubrum; ITR:ZOL,0.75
same,FICI,Trichophyton rubrum; KET:ZOL,0.38
same,FICI (FLC:INH),"Trichophyton rubrum; T. rubrum, Fractional Inhibitory Concentration Index, fluconazole + inhibitor",0.5
same,FICI (ITR:INH),"Trichophyton rubrum; T. rubrum, Fractional Inhibitory Concentration Index, itraconazole + inhibitor",0.75
same,FICI (KET:INH),"Trichophyton rubrum; T. rubrum, Fractional Inhibitory Concentration Index, ketoconazole + inhibitor",0.38
same,INH MICc (FLC:INH),"Trichophyton rubrum; T. rubrum, MIC of the inhibitor in combination with fluconazole",32
same,INH MICc (ITR:INH),"Trichophyton rubrum; T. rubrum, MIC of the inhibitor in combination with itraconazole",64
same,INH MICc (KET:INH),"Trichophyton rubrum; T. rubrum, MIC of the inhibitor in combination with ketoconazole",16
same,FLC FD (FLC:INH),"Trichophyton rubrum; T. rubrum, MIC-MICc fold decrease of fluconazole, negative = increase",4
same,ITR FD (ITR:INH),"Trichophyton rubrum; T. rubrum, MIC-MICc fold decrease of itraconazole, negative = increase",4
same,KET FD (KET:INH),"Trichophyton rubrum; T. rubrum, MIC-MICc fold decrease of ketoconazole, negative = increase",4
same,INH FD (FLC:INH),"Trichophyton rubrum; T. rubrum, MIC-MICc fold decrease of the inhibitor, with fluconazole",4
same,INH FD (ITR:INH),"Trichophyton rubrum; T. rubrum, MIC-MICc fold decrease of the inhibitor, with itraconazole",2
same,INH FD (KET:INH),"Trichophyton rubrum; T. rubrum, MIC-MICc fold decrease of the inhibitor, with ketoconazole",8
same,FICI,Trichophyton rubrum; VOR:ZOL,0.38
same,bisphosphonate MICc,Trichophyton rubrum; ZOL with 5FC,128
same,bisphosphonate MICc,Trichophyton rubrum; ZOL with AMB,256
same,bisphosphonate MICc,Trichophyton rubrum; ZOL with CAS,32
same,bisphosphonate MICc,Trichophyton rubrum; ZOL with FLC,32
same,bisphosphonate MICc,Trichophyton rubrum; ZOL with ITR,64
same,bisphosphonate MICc,Trichophyton rubrum; ZOL with KET,16
same,bisphosphonate MICc,Trichophyton rubrum; ZOL with VOR,16
same,FICI,"Trichophyton rubrum; with ITR, Trichophyton rubrum",0.75
same,MIC / MEC,Candida tropicalis,128 µg/mL
same,FICI,Saccharomyces cerevisiae; 5FC:ZOL,1.25
same,FICI,Saccharomyces cerevisiae; AMB:ZOL,2.5
same,FICI,Saccharomyces cerevisiae; CAS:ZOL,1.01
same,FICI,Saccharomyces cerevisiae; FLC:ZOL,0.38
same,FICI,Saccharomyces cerevisiae; ITR:ZOL,0.5
same,FICI,Saccharomyces cerevisiae; KET:ZOL,0.25
same,FICI,Saccharomyces cerevisiae; [12],0.38
same,FLC MICc,"Saccharomyces cerevisiae; S. cerevisiae, FLC:INH combination, MIC of FLC in combination with the inhibitor",1
same,INH MICc,"Saccharomyces cerevisiae; S. cerevisiae, FLC:INH combination, MIC of the inhibitor in combination with FLC",32
same,FLC FD (MIC-MICc fold decrease),"Saccharomyces cerevisiae; S. cerevisiae, FLC:INH combination, fold decrease of FLC MIC",4
same,INH FD (MIC-MICc fold decrease),Saccharomyces cerevisiae; [12],8
same,FICI,Saccharomyces cerevisiae; [13],0.5
same,ITR MICc,"Saccharomyces cerevisiae; S. cerevisiae, ITR:INH combination, MIC of ITR in combination with the inhibitor",0.063
same,INH MICc,"Saccharomyces cerevisiae; S. cerevisiae, ITR:INH combination, MIC of the inhibitor in combination with ITR",64
same,ITR FD (MIC-MICc fold decrease),"Saccharomyces cerevisiae; S. cerevisiae, ITR:INH combination, fold decrease of ITR MIC",4
same,INH FD (MIC-MICc fold decrease),Saccharomyces cerevisiae; [13],4
same,FICI,"Saccharomyces cerevisiae; S. cerevisiae, KET:INH combination",0.25
same,KET MICc,"Saccharomyces cerevisiae; S. cerevisiae, KET:INH combination, MIC of KET in combination with the inhibitor",0.25
same,INH MICc,"Saccharomyces cerevisiae; S. cerevisiae, KET:INH combination, MIC of the inhibitor in combination with KET",32
same,KET FD (MIC-MICc fold decrease),"Saccharomyces cerevisiae; S. cerevisiae, KET:INH combination, fold decrease of KET MIC",8
